# Measurements taken from patent US20220289679A1, “HETEROCYCLIC COMPOUND” (Takeda Pharmaceutical Company Limited, priority 2019, published 2022).
# Target: T1, human GCS (glucosylceramide synthase) (Homo sapiens, UniProt Q16739)
# T1 construct: made in house; host or cells: Expi293F cells (transient expression; microsome fraction)
# T1 sequence (Q16739 1-394): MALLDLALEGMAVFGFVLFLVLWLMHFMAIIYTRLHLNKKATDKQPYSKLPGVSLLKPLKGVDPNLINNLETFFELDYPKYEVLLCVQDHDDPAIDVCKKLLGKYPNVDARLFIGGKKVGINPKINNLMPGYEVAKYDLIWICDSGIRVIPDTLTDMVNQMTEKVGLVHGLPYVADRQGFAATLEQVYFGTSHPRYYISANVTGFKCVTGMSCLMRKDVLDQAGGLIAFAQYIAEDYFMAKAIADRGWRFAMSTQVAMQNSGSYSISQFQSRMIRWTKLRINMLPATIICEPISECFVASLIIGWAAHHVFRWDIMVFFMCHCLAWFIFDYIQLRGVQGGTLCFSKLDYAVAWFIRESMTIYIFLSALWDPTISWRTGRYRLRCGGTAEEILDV
# Assay: Glucosylceramide Synthase (GCS) Assay
# Assay type: biochemical
# Conditions: test compound 10 μM; microsome fraction of Expi293F cells expressing human GCS; 1.7 μM UDP-glucose, 3 μM C8 ceramide; room temperature 60 min; C8 glucosylceramide by Rapidfire MS/MS; read-out: GCS enzyme inhibitory rate at 10 μM (%)
# In short: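 Test compounds were run at a final 10 μM against liposomal C8 ceramide (3 μM) and UDP-glucose at its Km (1.7 μM). Human GCS came as microsomes from transfected Expi293F cells, incubated 60 min at room temperature, pH 7.5. Product measured by RapidFire MS/MS; 0% and 100% inhibition were DMSO and no-enzyme wells.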
row,Compound,inhibition at 10 µM
1,"Cc1cc(C(=O)Nc2ccc(C(C)(C)O)nc2)c(=O)n(-c2ccccc2OCC(F)F)n1 [Example 135, 2-[2-(2,2-difluoroethoxy)phenyl]-N-[6-(2-hydroxypropan-2-yl)pyridin-3-yl]-6-methyl-3-oxo-2,3-dihydropyridazine-4-carboxamide]",98%
2,"Cc1cc(C(=O)Nc2ccc(C(C)(C)O)cc2)c(=O)n(-c2ccccc2OCC(F)F)n1 [Example 136, 2-[2-(2,2-difluoroethoxy)phenyl]-N-[4-(2-hydroxypropan-2-yl)phenyl]-6-methyl-3-oxo-2,3-dihydropyridazine-4-carboxamide]",100%
3,"Cc1cc(C(=O)Nc2ccc(C(C)(C)O)cn2)c(=O)n(-c2ccccc2OCC(F)F)n1 [Example 137, 2-[2-(2,2-difluoroethoxy)phenyl]-N-[5-(2-hydroxypropan-2-yl)pyridin-2-yl]-6-methyl-3-oxo-2,3-dihydropyridazine-4-carboxamide]",99%
4,"Cc1cc(C(=O)Nc2ccc(C3COC3)cc2)c(=O)n(-c2ccccc2OCC(F)F)n1 [Example 141, 2-[2-(2,2-difluoroethoxy)phenyl]-6-methyl-N-[4-(oxetan-3-yl)phenyl]-3-oxo-2,3-dihydropyridazine-4-carboxamide]",99%
5,"Cc1cc(NC(=O)c2ccnn(-c3ccccc3OCC(F)F)c2=O)ccc1C(C)(C)O [Example 142, 2-[2-(2,2-difluoroethoxy)phenyl]-N-[4-(2-hydroxypropan-2-yl)-3-methylphenyl]-3-oxo-2,3-dihydropyridazine-4-carboxamide]",98%
6,"Cc1cc(C(C)(C)O)ccc1NC(=O)c1ccnn(-c2ccccc2OCC(F)F)c1=O [Example 143, 2-[2-(2,2-difluoroethoxy)phenyl]-N-[4-(2-hydroxypropan-2-yl)-2-methylphenyl]-3-oxo-2,3-dihydropyridazine-4-carboxamide]",97%
7,"Cc1cc(C(=O)Nc2ccc(C(C)(C)O)cc2F)c(=O)n(-c2ccccc2OCC(F)F)n1 [Example 146, 2-[2-(2,2-difluoroethoxy)phenyl]-N-[2-fluoro-4-(2-hydroxypropan-2-yl)phenyl]-6-methyl-3-oxo-2,3-dihydropyridazine-4-carboxamide]",100%
8,"CC(C)(O)c1ccc(NC(=O)c2ccnn(-c3ccccc3OCC(F)F)c2=O)c(F)c1 [Example 147, 2-[2-(2,2-difluoroethoxy)phenyl]-N-[2-fluoro-4-(2-hydroxypropan-2-yl)phenyl]-3-oxo-2,3-dihydropyridazine-4-carboxamide]",100%
9,"CC(C)(O)c1ccc(NC(=O)c2ccnn(-c3ccccc3OCC(F)(F)F)c2=O)c(F)c1 [Example 148, N-[2-fluoro-4-(2-hydroxypropan-2-yl)phenyl]-3-oxo-2-[2-(2,2,2-trifluoroethoxy)phenyl]-2,3-dihydropyridazine-4-carboxamide]",100%
10,"Cc1cc(C(=O)Nc2ccc(C(C)(C)O)cc2Cl)c(=O)n(-c2ccccc2OCC(F)F)n1 [Example 149, N-[2-chloro-4-(2-hydroxypropan-2-yl)phenyl]-2-[2-(2,2-difluoroethoxy)phenyl]-6-methyl-3-oxo-2,3-dihydropyridazine-4-carboxamide]",100%
11,"Cc1cc(C(=O)Nc2c(F)cc(C(C)(C)O)cc2F)c(=O)n(-c2ccccc2OCC(F)F)n1 [Example 150, 2-[2-(2,2-difluoroethoxy)phenyl]-N-[2,6-difluoro-4-(2-hydroxypropan-2-yl)phenyl]-6-methyl-3-oxo-2,3-dihydropyridazine-4-carboxamide]",94%
12,"COc1cc(C(C)(C)O)ccc1NC(=O)c1cc(C)nn(-c2ccccc2OCC(F)F)c1=O [Example 151, 2-[2-(2,2-difluoroethoxy)phenyl]-N-[4-(2-hydroxypropan-2-yl)-2-methoxyphenyl]-6-methyl-3-oxo-2,3-dihydropyridazine-4-carboxamide]",53%
13,"Cc1cc(C(=O)Nc2ccc(C(O)(C(F)F)C(F)F)cc2)c(=O)n(-c2ccccc2OCC(F)F)n1 [Example 152, 2-[2-(2,2-difluoroethoxy)phenyl]-6-methyl-3-oxo-N-[4-(1,1,3,3-tetrafluoro-2-hydroxypropan-2-yl)phenyl]-2,3-dihydropyridazine-4-carboxamide]",100%
14,"O=C(Nc1ccc(C(O)(C(F)F)C(F)F)cc1)c1ccnn(-c2ccccc2OCC(F)F)c1=O [Example 153, 2-[2-(2,2-difluoroethoxy)phenyl]-3-oxo-N-[4-(1,1,3,3-tetrafluoro-2-hydroxypropan-2-yl)phenyl]-2,3-dihydropyridazine-4-carboxamide]",100%
15,"Cc1cc(C(=O)Nc2ccc(C(C)(C)O)cc2C#N)c(=O)n(-c2ccccc2OCC(F)F)n1 [Example 154, N-[2-cyano-4-(2-hydroxypropan-2-yl)phenyl]-2-[2-(2,2-difluoroethoxy)phenyl]-6-methyl-3-oxo-2,3-dihydropyridazine-4-carboxamide]",83%
16,"O=C(Nc1ccc(C(O)(C(F)F)C(F)F)cc1)c1ccnn(-c2ccccc2OCC(F)(F)F)c1=O [Example 155, 3-oxo-N-[4-(1,1,3,3-tetrafluoro-2-hydroxypropan-2-yl)phenyl]-2-[2-(2,2,2-trifluoroethoxy)phenyl]-2,3-dihydropyridazine-4-carboxamide]",100%
17,"Cc1cc(C(=O)Nc2ccc(C(O)(C(F)F)C(F)F)cc2F)c(=O)n(-c2ccccc2OCC(F)F)n1 [Example 156, 2-[2-(2,2-difluoroethoxy)phenyl)-N-[2-fluoro-4-(1,1,3,3-tetrafluoro-2-hydroxypropan-2-yl)phenyl]-6-methyl-3-oxo-2,3-dihydropyridazine-4-carboxamide]",100%
18,"O=C(Nc1ccc(C(O)(C(F)F)C(F)F)cc1F)c1ccnn(-c2ccccc2OCC(F)F)c1=O [Example 157, 2-[2-(2,2-difluoroethoxy)phenyl]-N-[2-fluoro-4-(1,1,3,3-tetrafluoro-2-hydroxypropan-2-yl)phenyl]-3-oxo-2,3-dihydropyridazine-4-carboxamide]",100%
19,"Cn1cc(C(=O)Nc2ccc(C(C)(C)O)cc2)c(=O)c(-c2ccccc2OCC(F)F)n1 [Example 158, 6-[2-(2,2-difluoroethoxy)phenyl]-N-[4-(2-hydroxypropan-2-yl)phenyl]-2-methyl-5-oxo-2,5-dihydropyridazine-4-carboxamide]",100%
20,"Cn1cc(C(=O)Nc2ccc(C(O)(C(F)F)C(F)F)cc2)c(=O)c(-c2ccccc2OCC(F)F)n1 [Example 159, 6-[2-(2,2-difluoroethoxy)phenyl]-2-methyl-5-oxo-N-[4-(1,1,3,3-tetrafluoro-2-hydroxypropan-2-yl)phenyl]-2,5-dihydropyridazine-4-carboxamide]",100%
21,"O=C(Nc1ccc(C(O)(C(F)F)C(F)F)cc1Cl)c1ccnn(-c2ccccc2OCC(F)F)c1=O [Example 160, N-[2-chloro-4-(1,1,3,3-tetrafluoro-2-hydroxypropan-2-yl)phenyl]-2-[2-(2,2-difluoroethoxy)phenyl]-3-oxo-2,3-dihydropyridazine-4-carboxamide]",100%
22,"CC(C)(O)c1ccc(NC(=O)c2cn(C(F)F)nc(-c3ccccc3OCC(F)F)c2=O)cc1 [Example 161, 6-[2-(2,2-difluoroethoxy)phenyl]-2-(difluoromethyl)-N-[4-(2-hydroxypropan-2-yl)phenyl]-5-oxo-2,5-dihydropyridazine-4-carboxamide]",100%
23,"O=C(Nc1ccc(C(O)(C(F)F)C(F)F)nc1)c1ccnn(-c2ccccc2OCC(F)(F)F)c1=O [Example 162, 3-oxo-N-[6-(1,1,3,3-tetrafluoro-2-hydroxypropan-2-yl)pyridin-3-yl]-2-[2-(2,2,2-trifluoroethoxy)phenyl]-2,3-dihydropyridazine-4-carboxamide]",100%
24,"O=C(Nc1ccc(C(O)(C(F)F)C(F)F)cc1)c1cn(C(F)F)nc(-c2ccccc2OCC(F)F)c1=O [Example 163, 6-[2-(2,2-difluoroethoxy)phenyl]-2-(difluoromethyl)-5-oxo-N-[4-(1,1,3,3-tetrafluoro-2-hydroxypropan-2-yl)phenyl]-2,5-dihydropyridazine-4-carboxamide]",100%
25,"Cn1cc(C(=O)Nc2ccc(OCC(C)(C)O)cc2)c(=O)c(-c2ccccc2OCC(F)F)n1 [Example 164, 6-[2-(2,2-difluoroethoxy)phenyl]-N-[4-(2-hydroxy-2-methylpropoxy)phenyl]-2-methyl-5-oxo-2,5-dihydropyridazine-4-carboxamide]",94%
26,"CC(C)(O)COc1ccc(NC(=O)c2cn(C(F)F)nc(-c3ccccc3OCC(F)F)c2=O)cc1 [Example 165, 6-[2-(2,2-difluoroethoxy)phenyl]-2-(difluoromethyl)-N-[4-(2-hydroxy-2-methylpropoxy)phenyl]-5-oxo-2,5-dihydropyridazine-4-carboxamide]",98%
27,"Cn1cc(C(=O)Nc2ccc(C(C)(C)O)cc2)c(=O)c(-c2ccccc2OCC(F)(F)F)n1 [Example 166, N-[4-(2-hydroxypropan-2-yl)phenyl]-2-methyl-5-oxo-6-[2-(2,2,2-trifluoroethoxy)pheny]-2,5-dihydropyridazine-4-carboxamide]",100%
